Measured values: patent publication US8563603B2, “Polycyclic compounds and methods related thereto” (Cornell University, priority 2008, dated 2013)

Columns and labels:
breast cancer cell lines = test: Alamar Blue cytotoxicity, averaged across cell lines or cell line not stated; format: cell-based, human; conditions: averaged across cell lines
Procedure: (§1) Human breast carcinoma cell line lines; SKBR-3, BT20, MB-MDA-468, MB-MDA-453, MB-MDA-231, and MCF-7 and human cancer cell lines Calu-6, Hela, HCT-116, HT-29, and A-431, obtained from ATCC (Manassas, Va.), were cultured in Dulbecco's Modified Eagle's Medium (DMEM-Sigma D-564R) supplemented with 10% Fetal Calf Serum (heat-inactivated) and antibiotics (Antibiotic Antimycotic Solution 100×, Sigma A9909). Breast cancer cell lines were chosen based on their varying amount of Epidermal Growth Factor Receptors (EGFR). Cells were routinely propagated and cultured at 37° C. in a 100% relative humidified atmosphere consisting of 5% C02 and 95% air. Cells were trypsinized with 0.05% Trypsin-0.2% EDTA (w/v) solution. All experiments were repeated at least three times.
Cells were seeded onto a standard 96-well microtiter plate at a density of 2×10^4 cells/well in 100-μl tissue culture medium. […] Each well was evaluated at seven 10-fold dilutions starting from a high of 1000 ppm. […] Following a 48-h incubation period, extracted cells were evaluated using Alamar Blue, a fluorometric/colorimetric assay that measures cell proliferation by relying on the cells metabolic activity. […] Data were analyzed immediately by visualizing color densities and/or with a standard spectrophotometer at 540 nm.

cancer cell lines = test: Sulforhodamine B (SRB) assay, cell line not stated / average of all cell lines; format: cell-based, human; conditions: highest concentration; positive control averaged on all cell lines
Procedure: as §1
In addition to Alamar blue, Sulforhodamine B Assay (SRB) was used to determine inhibition by bound protein. Individual cell lines were seeded at varying cell densities as determined by growth rate. […] The absorbance of stained protein was read with an automated 96-well microtiter ELISA plate reader (SAFIRE) at 540 nm. Using absorbance measurement [time zero. (Tz)—control growth, and growth at each drug concentration level (Ti)], the percentage growth is calculated at each of the drug concentrations. Percent growth inhibition is calculated as: [(Ti−Tz)/Tz]×100 for concentration for which Ti<Tz.

[1] = system: Human breast cancer cell line MB-MDA-231; test: Annexin V FITC / PI apoptosis detection by flow cytometry, 24 h; format: cell-based
Procedure: Human breast cancer cell line MB-MDA-231 were cultured in Dulbecco's Modified Eagle's medium (DMEM-Sigma, D-5648), supplemented with 10% (heat-inactivated) Fetal Bovine Serum (Atlanta Biologicals, Inc.) and Antibiotic Solution, 100× (Sigma A-9909). Cells were gown at 37° C., at 5-7% CO2, and 95% humidity and were obtained from the American Type Culture Collection (ATCC). Cells were trypsinized with 0.05% Trypsin-0.2% EDTA (w/v) solution (Invitrogen Corporation, Carlsbad, Calif.).
The induction of apoptosis in MB-MDA-231 was analyzed using a well-validated Annexin V FITC apoptosis detection kit (Calbiochem), Darzynkiewicz, 1998. The phosphatidylserine (PS)-specific dye Annexin-V is used to detect apoptotic-specific changes to the organization of phospholipids leading to exposure of PS on the cell surface that precedes nuclear breakdown, DNA fragmentation, and the appearance of most apoptosis-associated molecules. For these studies cells were seeded at 25×10^4 cells/1.5 ml in a 24 well microtiter plate. Cells were allowed to adhere to plates for 24 h, and then exposed to lignans of the present invention at 5-fold dilutions of 30 μl, 6 μl, and 1.2 μl per well for 24 h. Test compounds were mixed in solution using DMSO as vehicle (10 mg extract/1 ml DMSO). Camptothecin was used as a positive control. Following the incubation period 700 μl of suspended cells were transferred to 15 ml conical tubes. Cells that remained adhered to the 24-well plates were gently washed with PBS (137 mM NaCl, 2.7 mM KCL, 4.3 mM Na2HPO4-7H2O, 1.4 mM KH2PO4, adjusted to pH 7.4), trypsinized with 1 ml of solution (0.05% Trypsin—0.2% EDTA [w/v]), and resuspended with the suspended cells/media collected in the 15 ml conical tubes from the previous step. 10 μl of media-binding reagent and 1.25 μl Annexin V-FITC was added to the 15 ml conical tubes containing both the 700 μl of suspended cells and the resuspended cells and incubated at room temperature for 15 min, at 18-24° C., in the dark. Tubes were centrifuged for 5 minutes at 1000×g at room temperature. Media was removed and cells were gently resuspended in 0.5 ml cold 1×binding buffer (dilution; 5× Binding Buffer concentrate 1:5 with dH2O) and placed on ice. 10 μl of propidium iodide was added to each tube. Cells were placed on ice away from light and analyzed immediately by flow cytometry. The dual fluorescence emissions of the respective dyes were detected in cell preparations on a BD-Biosciences FACS Aria high-speed flow cytometer/cell sorter utilizing a quartz cuvette for interrogation. To quantify the Annexin V (FL1 at 518 nm) and propidium iodide (620 nm) signals, apoptosis-induced cells (CPT) stained with FITC only and apoptosis-induced cells (CPT) labeled with only propidium iodide were utilized. Necessary adjustments were made to minimize overlap between these two measurements. Typically, 10,000-20,000 cells were scored for each sample and classified as either viable, early apoptotic, or late apoptotic or necrotic. All experiments were repeated at least three times, each in duplicate.
The principal of the Annexin V/FITC assay is that, Annexin V, an anticoagulant protein, preferentially binds negatively charged phospholipids. Early in the apoptotic process, phospholipid asymmetry is disrupted leading to the exposure of phosphatidylserine (PS) on the outer leaflet of the cytoplasmic membrane. Annexin V binds to the negatively charged calcium-dependent PS. Conjugating FITC to Annexin V with simultaneous propidium iodide (PI) staining allows bivariate analysis of intact cells. Live, healthy cells are double negative, FITC (−)/PI (−), and are seen in the lower left quadrant [A3] of FACS cytograms. Cells that are FITC (+)/PI (−) [A4] are early apoptotic. Cell populations that are advanced apoptotic or necrotic are FITC (+)/PI (+) are located in quadrant [A2]. […]

cell line MD-MBA-231 = test: Cell cycle analysis by DNA content (hypotonic PI staining, flow cytometry); format: cell-based, human; conditions: 1.2, 6.0, 30.0 ppm; 24 h
Procedure: Twenty-four hours after exposure to compounds, 25×10^4 cells in 1.5 ml cells were simply re-suspended following either the Annexin V/FITC assay or the trypsin procedures. Cells were centrifuged at 1000-x g at room temperature and washed in 0.5 ml of hypotonic staining solution. Cells were kept a minimum of 30 min. at 4° C. in the dark. Samples were usually analyzed by flow cytometry on the same day or at 24 hrs. Resulting DNA distributions were analyzed for the proportion of cells in apoptosis and in G0/G1, S, and G2/M phases of the cell cycle. Singlet events were gated and 10,000-20,000 events were acquired within the gated region. All experiments were repeated at least three times, each in duplicate.
The cell cycle comprises steps that regulate the correct temporal sequence of events that control the growth, reproduction and differentiation of cells. The cell cycle consists of 4 phases: G0/G1, S (DNA synthesis), G2, and M (mitosis). In addition, checkpoints located in the cell cycle transition ensure that cell growth and division occur in response to appropriate signals and environment. When proliferating, if cells are subjected to DNA damage the cell cycle temporarily pauses either at G1, S or G2 phase. Arrest at these checkpoints prevents DNA replication and mitosis in the presence of unrepaired DNA damage and presumably allows time for DNA repair to occur. The proportion of cells that arrest in G1, S or G2 after damage depends on cell type, growth conditions, type of damage and the checkpoints operative in the cells. Shifts in the redistribution of phases of the cell cycle in response to various stimuli can be readily assessed by flow cytometry. DNA content analysis with the use of PI is one of the most common assays. The use of intercalating dyes to measure DNA content are the most common and are usually sufficient to determine relative shifts in the phases of the cell cycle. The hypotonic solution lyses the plasma membrane and prevents many of the aggregate problems associated with fixed cells. Propidium Iodide(PI) passes through permeabilized cell membranes and intercalates with cellular DNA. Therefore, the intensity of the PI signal is directly proportional to DNA content. DNA content experiments determine the percent induction of apoptosis and relative distribution of the cell cycle phases.
The percent of apoptotic cells (cells with fractional DNA content; sub G1 cells) were established by estimating the percentage of events showing up in sub G0. The Sub-G1 method relies on the fact that after DNA fragmentation, there are small fragments of DNA that may be eluted. However in order to be seen in the Sub G1 area, a cell must have lost enough DNA to appear there; so if cells enter apoptosis from the S or G2/M phase of the cell cycle or if there is an aneuploid population undergoing apoptosis, they may not appear in the Sub G1 peak. The number of events in sub G1 (number of nuclear fragments) provides no information on the # of cells undergoing apoptosis.

In the case of `O=c1[nH]cc(F)c(=O)[nH]1` [5-fluorouracil, 5-Fluorouracil], the “concentration of cell death / greatest inhibition, positive controls” value (breast cancer cell lines) is reported as “cell death at the same lower limits as cell lines BT20 and MB-MDA-453” and the inhibited cell growth (cancer cell lines) is reported as “approximately 60%”.
In the case of `CC[C@@]1(O)C(=O)OCc2c1cc1n(c2=O)Cc2cc3ccccc3nc2-1` [Camptothecin, reference compound], the “early stage apoptosis, FITC (+)/PI (−) staining, significance” value ([1]; 1.2, 6.0, 30.0 ppm, 24 h) is reported as “significantly increased”, the “early apoptosis activity increased over the spirocyclic lignans” value ([1]; all doses) is reported as “at least 5%” and the “% events in sub G0 (apoptotic events)” value (cell line MD-MBA-231) is reported as “increased and significantly induced apoptotic activity at 30.0 ppm”. The “effect on cell population in G2/M” value (cell line MD-MBA-231) was “remained at levels with untreated cells at all doses”, the “effect on cell populations in S-phase, significance” value (cell line MD-MBA-231) was “significant at 6.0 and 30.0 ppm” and the singlet count (cell line MD-MBA-231) was “reached minimal levels at 30 ppm”. For the same compound, the “concentration of cell death / greatest inhibition, positive controls” value (breast cancer cell lines) was 7.81 ppm.
